These results are taken from EP3124047A1, “PENTACYCLIC TRITERPENOIDS FOR INJECTION LIPOLYSIS” (Merz Pharma GmbH & Co. KGaA, priority 2015, dated 2017).

Where two headings read alike, the source gives them in different places.

For one series, the system named is mature adipocytes. Description: Alamar blue (resazurin) cell viability assay on mature adipocytes, surrogate for adipocytolytic potential. It counts as cell-based, human. The conditions noted are these: for IC50: viability, 48 hrs after compound incubation; for lower IC50 value compared to deoxycholic acid (difference, higher adipocytolytic effect): IC50 ratio versus deoxycholic acid, preadipocytes and adipocytes. The protocol:
(§1) The following experimental setup was used for determination of adipocytolytic potential of test compounds with preadipocytes and mature adipocytes: • Primary human preadipocytes (PromoCell) were seeded in Preadipocyte Growth Medium at 45000 cells/cm^2 to allow attachment overnight. Cells were cultured at 37°C and 5% CO2 until postconfluence. Differentiation was started with incubation of cells in Differentiation Medium for 7 days followed by incubation in Nutrition medium for further 14 days. After differentiation process, mature adipocytes were incubated with indicated concentration of indicated triterpenes.
(§2) 6 replicates of each test compound concentration were tested. Each plate included a negative control and a compound interference control (for all concentrations, duplicates).
(§3) Cell viability as surrogate for adipocytolytic potential of compounds were analysed by alamar blue assay. In brief, 20µl of a 0,1mg/ml Resazurin sodium salt (Sigma; R7017-1 G) solution was added to each well 48 hrs after compound incubation. The cells were incubated for 90 min at 37°C and 5% CO2 and the resulting conversion of resazurin to resorufin was measured by a fluorescence plate reader at 590 nm. Vehicle controls were set as 100%. IC50-values were analysed using SigmaBlotV13.

Series [1] relates to Primary human preadipocytes. As to the kind of experiment: Alamar blue (resazurin) cell viability assay on preadipocytes. The class given is cell-based. The conditions noted are these: for viability at 10 µM / viability at 30 µM / viability at 50 µM / viability at 100 µM / viability at 300 µM: read-out: Viability Preadipocytes (%); for IC50: viability, 48 hrs after compound incubation, read-out: IC50 [µM] Pre-ad ipocytes. The protocol: as §1, §2, §3
For orientation: The colour change of resazurin is a common sign of viable cells or microbes.

Series [2] relates to adipocytes. As to the kind of experiment: LDH release from adipocytes (indicative for membrane damage). The note with it: compared with deoxycholate; far not as high as 4fold. The class given is cell-based, human. A general note: Release of lactate dehydrogenase indicates damage to the cell membrane.
For series [3], the system named is adipocytes. As to the kind of experiment: Caspase-Glo 3/7 Assay, apoptosis induction in adipocytes. The class given is cell-based, human. The note with it: for Apoptosis Adipocytes (%): basal apoptosis (vehicle) = 100%. How it is done: as §1
For analysing the potential of compounds to induce apoptosis the Caspase-Glo® 3/7 Assay (Promega) was used as recommended by the supplier. In brief, 100µl Caspase Reagent were added to 100µl cell culture medium and cells were incubated at 37°C and 5% CO2 for 1 hr. Luminescence signal was measured with a SynergyH4 plate reader. Vehicle controls were used to define basal apoptosis as 100%. Table 1 Impact on viability of adipocytes after 48h incubation with indicated compound in increasing concentration

Setting [4] is: Homo sapiens, Adipocyte, 48 h, 10 µM, 48h incubation, vehicle controls = 100%, read-out: Viability Adipocytes (%).
Where [5] appears, read: Homo sapiens, Adipocyte, 48 h, 50 µM, 48h incubation, vehicle controls = 100%, read-out: Viability Adipocytes (%).
The mark [6] stands for this setting: Homo sapiens, Adipocyte, 48 h, 100 µM, 48h incubation, vehicle controls = 100%, read-out: Viability Adipocytes (%).
The mark [7] stands for this setting: Homo sapiens, Adipocyte, 48 h, 300 µM, 48h incubation, vehicle controls = 100%, read-out: Viability Adipocytes (%).
The mark [8] stands for this setting: 10 µM, 48h incubation, vehicle controls = 100%.
Where [9] appears, read: 30 µM, 48h incubation, vehicle controls = 100%.
The mark [10] stands for this setting: 50 µM, 48h incubation, vehicle controls = 100%.
The mark [11] stands for this setting: 100 µM, 48h incubation, vehicle controls = 100%.
The mark [12] stands for this setting: 300 µM, 48h incubation, vehicle controls = 100%.
The mark [13] stands for this setting: Homo sapiens, Adipocyte, 48 h, 30 µM, 48h incubation, vehicle controls = 100%, read-out: Viability Adipocytes (%).
[14] abbreviates: Homo sapiens, Adipocyte, 48 h, read-out: Viability Adipocytes (%), 10 µM, 48h incubation, vehicle controls = 100%.
The mark [15] stands for this setting: Homo sapiens, Adipocyte, 48 h, read-out: Viability Adipocytes (%), 30 µM, 48h incubation, vehicle controls = 100%.
[16] abbreviates: Homo sapiens, Adipocyte, 48 h, read-out: Viability Adipocytes (%), 50 µM, 48h incubation, vehicle controls = 100%.
Where [17] appears, read: Homo sapiens, Adipocyte, 48 h, read-out: Viability Adipocytes (%), 100 µM, 48h incubation, vehicle controls = 100%.
[18] abbreviates: Homo sapiens, Adipocyte, 48 h, read-out: Viability Adipocytes (%), 300 µM, 48h incubation, vehicle controls = 100%.

For orientation: viability means a read-out of living cells in per cent, often relative to untreated cells. What is called IC50 is the point on the concentration scale where inhibition reaches its midpoint. As to `C[C@H](CCC(=O)O)[C@H]1CC[C@H]2[C@@H]3CC[C@@H]4C[C@H](O)CC[C@]4(C)[C@H]3C[C@H](O)[C@]12C` [Deoxycholic acid, reference compound], the values for the viability at 10 µM (in the series with mature adipocytes (setting [4]); in series [1] (setting [8])) were 107% and 96.2%, respectively. Besides, the viability at 50 µM (with mature adipocytes (setting [5]); in series [1] (setting [10])) was 95.6% each time. For the same molecule, the viability at 100 µM with mature adipocytes (setting [6]) is 94.3%; in series [1] (setting [11]), 98%. Further, the viability at 200 µM with mature adipocytes (Homo sapiens, Adipocyte, 48 h, 200 µM, concentration required for 50%-decrease in viability) is about 50%. The viability at 300 µM in the series with mature adipocytes (setting [7]) stood at 22.1%; in series [1] (setting [12]) it was 26.1%. In addition, the IC50 in the series with mature adipocytes (Homo sapiens, Adipocyte) is 244 µM; in series [1], 232 µM. The viability at 30 µM in series [1] (setting [9]) was found to be 92.8%.

As to `C=C(C)[C@@H]1CC[C@]2(C(=O)O)CC[C@]3(C)[C@H](CC[C@@H]4[C@@]5(C)CC[C@H](O)C(C)(C)[C@@H]5CC[C@]43C)[C@@H]12` [Betulinic acid, (3β)-3-hydroxy-lup-20(29)-en-28-oic acid], the results for the viability at 10 µM (in the series on mature adipocytes (setting [4]); in series [1] (setting [8])) were 104% and 81.8%, respectively. Also, the values for the viability at 30 µM (in the series on mature adipocytes (setting [13]); in series [1] (setting [9])) were 85.6% and 48.5%, respectively. The viability at 50 µM was 70.7% in the series on mature adipocytes (setting [5]) and 45.1% in series [1] (setting [10]). The viability at 100 µM in the series with mature adipocytes (setting [6]) is 32.3%; in series [1] (setting [11]) it was 17.5%. In addition, the viability at 300 µM with mature adipocytes (setting [7]) is 4.9%; in series [1] (setting [12]), 0.45%. Moreover, the IC50 with mature adipocytes (Homo sapiens, Adipocyte) is 72 µM; in series [1], 35.5 µM.

`C[C@H]1[C@H](C)CC[C@]2(C(=O)O)CC[C@]3(C)C(=CC[C@@H]4[C@@]5(C)C[C@@H](O)[C@H](O)C(C)(C)[C@@H]5CC[C@]43C)[C@H]12` [Corosolic acid, (1S,2R,4aS,6aR,6aS,6bR,8aR,10R, 11R,12aR,14bS)-10,11-Dihydroxy-1,2,6a,6b,9,9,12a-heptamethyl-2,3,4,5,6,6a,7,8,8a,10,11,12,13,14b-tetradecahydro-1H-picene-4a-carboxylic acid]: the values for the viability at 10 µM (in the series on mature adipocytes (setting [14]); in series [1] (48 h)) were 92.9% and 94.7%, respectively. The viability at 30 µM in the series on mature adipocytes (setting [15]) is 60.5%; in series [1] (48 h) it was 68.6%. For the same molecule, the viability at 50 µM was determined as 45.3% in the series with mature adipocytes (setting [16]) and 20.4% in series [1] (48 h). Moreover, the values for the viability at 100 µM (in the series on mature adipocytes (setting [17]); in series [1] (48 h)) were 6.06% and 0%, respectively. The viability at 300 µM in the series with mature adipocytes (setting [18]) turned out to be 0.47%; in series [1] (48 h), 0%. The IC50 is 45 µM in the series on mature adipocytes (Homo sapiens, Adipocyte) and 43.1 µM in series [1].

`CC1(C)CC[C@]2(C(=O)O)CC[C@]3(C)C(=CC[C@@H]4[C@@]5(C)C[C@@H](O)[C@H](O)C(C)(C)[C@@H]5CC[C@]43C)[C@@H]2C1` [Maslinic acid, (4aS,6aR,6aS,6bR,8aR,10R,11R,12aR,14bS)-10,11-dihydroxy-2,2,6a,6b,9,9,12a-heptamethyl-1,3,4,5,6,6a,7,8,8a,10,11,12,13,14b-tetradecahydropicene-4a-carboxylic acid]: the “Viability Adipocytes (%)” value with mature adipocytes (setting [10]) is listed as 47.08%. Also, the viability at 10 µM in the series with mature adipocytes (setting [4]) stood at 96.9%; in series [1] (setting [8]), 96.4%. In addition, the viability at 30 µM with mature adipocytes (setting [13]) came to 76.7%; in series [1] (setting [9]), 76%. For the same molecule, the viability at 50 µM is about 50% in the series with mature adipocytes (setting [5]) and 45.6% in series [1] (setting [10]). Moreover, the viability at 100 µM worked out at 4.86% in the series with mature adipocytes (setting [6]) and 2.42% in series [1] (setting [11]). The viability at 300 µM in the series with mature adipocytes (setting [7]) stood at 0.3%; in series [1] (setting [12]), 0%. Further, the IC50 is 53.4 µM in the series with mature adipocytes (Homo sapiens, Adipocyte) and 54.3 µM in series [1]. Besides, the “LDH release (indicative for membrane damage) from the adipocytes” value with adipocytes [2] is given as “higher”. Besides, the “Apoptosis Adipocytes (%)” value amounted to 97.17% in the series with adipocytes [3] (30 µM, 6 hrs); 121.70% in the series with adipocytes [3] (30 µM, 48hrs); 126.43% in the series with adipocytes [3] (50 µM, 6 hrs); 116.95% in the series on adipocytes [3] (50 µM, 48hrs); 662.48% in the series with adipocytes [3] (100 µM, 6 hrs); 304.15% in the series on adipocytes [3] (100 µM, 48hrs). In addition, the “Apoptosis Adipocytes (%)” value in the series with adipocytes [3] (200 µM, 48hrs) was determined as 378.25%; in the series on adipocytes [3] (300 µM, 6 hrs), 398.94%; in the series with adipocytes [3] (300 µM, 48hrs) it was 238.76%. Moreover, in the series with adipocytes [3] (100 µM after 6 hrs), the “max. apoptosis induction over basal levels” value came to 6.6 fold. The pro-apoptotic capacity entry in the series on adipocytes [3] (summary of the apoptosis data) is “clear pro-apoptotic capacity”.

On to `C[C@H]1[C@H](C)CC[C@]2(C(=O)O)CC[C@]3(C)C(=CC[C@@H]4[C@@]5(C)CC[C@H](O)C(C)(C)[C@@H]5CC[C@]43C)[C@H]12` [Ursolic acid, (1S,2R,4aS,6aR,6aS,6bR,8aR,10S,12aR,14bS)-10-hydroxy-1,2,6a,6b,9,9,12a-heptamethyl-2,3,4,5,6,6a,7,8,8a,10,11,12,13,14b-tetradecahydro-1H-picene-4a-carboxylic acid], for which the viability at 10 µM was determined as 92.4% with mature adipocytes (setting [4]) and 74.8% in series [1] (setting [8]). The results for the viability at 30 µM (in the series with mature adipocytes (setting [13]); in series [1] (setting [9])) were 28.9% and 12.7%, respectively. In addition, the viability at 50 µM with mature adipocytes (setting [5]) came out at 14.9%; in series [1] (setting [10]) it was 0.32%. Also, the figures for the viability at 100 µM (in the series on mature adipocytes (setting [6]); in series [1] (setting [11])) were 13.4% and 0%, respectively. The viability at 300 µM in the series with mature adipocytes (setting [7]) was 10.3%; in series [1] (setting [12]), 0%. For the same molecule, the IC50 in the series on mature adipocytes (Homo sapiens, Adipocyte) stood at 24.4 µM; in series [1], 20.1 µM. Besides, the “lower IC50 value compared to deoxycholic acid (difference, higher adipocytolytic effect)” value in the series with mature adipocytes was “about 10 fold”.

For `CC1(C)CC[C@]2(C(=O)O)CC[C@]3(C)C(=CC[C@@H]4[C@@]5(C)CC[C@H](O)C(C)(C)[C@@H]5CC[C@]43C)[C@@H]2C1` [Oleanolic acid, (4aS,6aR,6aS,6bR,8aR,10S,12aR,14bS)-10-hydroxy-2,2,6a,6b,9,9,12a-heptamethyl-1,3,4,5,6,6a,7,8,8a,10,11,12,13,14b-tetradecahydropicene-4a-carboxylic acid], the viability at 10 µM in the series with mature adipocytes (setting [14]) is 114%. Further, the viability at 30 µM was 110% with mature adipocytes (setting [15]) and 79.1% in series [1] (48 h). For the same molecule, the viability at 50 µM is 117% with mature adipocytes (setting [16]) and 83.4% in series [1] (48 h). For the same molecule, the viability at 100 µM in the series with mature adipocytes (setting [17]) is 32.4%; in series [1] (48 h), 53.3%. Also, the viability at 300 µM with mature adipocytes (setting [18]) came out at 15.8%; in series [1] (48 h) it was 0%. Besides, the IC50 in the series on mature adipocytes (Homo sapiens, Adipocyte) was 92.8 µM; in series [1], 125 µM. Besides, the “lower IC50 value compared to deoxycholic acid (difference, higher adipocytolytic effect)” value in the series with mature adipocytes stood at 2.5 fold.
